The values below are quoted from earlier work in US20090111868A1 (priority 2004, published 2009).

The conditions of data set [1]: not told; cited from earlier work.
The target of data set [2] is BKCa channel α and β subunits (Homo sapiens, UniProt Q12791). As to conditions: α and β subunits co-expressed; cited from earlier work.
A further data set deals with BKCa channels (Homo sapiens, UniProt Q12791). As to conditions: cited from earlier work.
Sequence of BKCa channels (Q12791 whole entry): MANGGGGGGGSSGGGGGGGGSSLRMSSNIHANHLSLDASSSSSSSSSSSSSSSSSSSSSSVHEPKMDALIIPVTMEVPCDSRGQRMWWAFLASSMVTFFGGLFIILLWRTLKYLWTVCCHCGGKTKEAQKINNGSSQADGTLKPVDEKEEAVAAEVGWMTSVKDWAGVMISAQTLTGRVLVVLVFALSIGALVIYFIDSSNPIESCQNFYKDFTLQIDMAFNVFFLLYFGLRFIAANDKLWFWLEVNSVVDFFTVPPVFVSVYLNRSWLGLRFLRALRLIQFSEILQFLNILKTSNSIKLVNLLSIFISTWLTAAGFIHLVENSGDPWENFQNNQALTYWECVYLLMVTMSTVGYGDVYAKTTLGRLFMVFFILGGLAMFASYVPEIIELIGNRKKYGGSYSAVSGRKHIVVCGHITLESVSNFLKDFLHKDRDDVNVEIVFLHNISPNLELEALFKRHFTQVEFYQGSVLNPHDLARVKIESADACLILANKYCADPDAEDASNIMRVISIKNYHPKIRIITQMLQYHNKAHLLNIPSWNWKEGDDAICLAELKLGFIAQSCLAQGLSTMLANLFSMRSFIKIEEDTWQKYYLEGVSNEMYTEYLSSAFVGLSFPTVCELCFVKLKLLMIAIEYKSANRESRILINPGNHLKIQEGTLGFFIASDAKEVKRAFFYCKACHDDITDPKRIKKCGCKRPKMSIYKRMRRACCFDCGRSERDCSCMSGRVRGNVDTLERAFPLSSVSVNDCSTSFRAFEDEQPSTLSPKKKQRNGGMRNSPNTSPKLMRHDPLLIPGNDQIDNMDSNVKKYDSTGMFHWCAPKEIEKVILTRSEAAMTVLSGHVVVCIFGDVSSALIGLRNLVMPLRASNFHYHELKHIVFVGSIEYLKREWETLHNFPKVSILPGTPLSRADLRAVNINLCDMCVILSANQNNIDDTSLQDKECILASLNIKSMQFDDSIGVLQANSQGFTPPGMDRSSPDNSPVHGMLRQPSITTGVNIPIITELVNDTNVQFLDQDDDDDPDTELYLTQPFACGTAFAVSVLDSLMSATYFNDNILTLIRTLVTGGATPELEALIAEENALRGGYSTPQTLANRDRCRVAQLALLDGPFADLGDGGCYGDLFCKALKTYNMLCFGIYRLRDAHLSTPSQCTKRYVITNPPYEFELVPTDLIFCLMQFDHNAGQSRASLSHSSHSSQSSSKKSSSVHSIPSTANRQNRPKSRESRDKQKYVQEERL

Sequence of BKCa channel α and β subunits (Q12791 whole entry): as above
Sequence of BKCa channel α and β subunits (Q16558 whole entry partner): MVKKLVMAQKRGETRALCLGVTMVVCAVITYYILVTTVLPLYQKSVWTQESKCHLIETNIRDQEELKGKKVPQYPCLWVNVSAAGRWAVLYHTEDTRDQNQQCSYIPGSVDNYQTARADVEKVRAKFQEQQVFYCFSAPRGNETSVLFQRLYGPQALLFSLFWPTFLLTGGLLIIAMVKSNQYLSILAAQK

Consider dehydrosoyasaponin-I [DHS-I], for which, in data set [1], the membrane permeability entry is recorded as “poor”. Further, the channel activity entry in data set [2] is recorded as “increases channel activity”. Further, at BKCa channels, the BKCa channel activation entry is given as “activate BKCa channels”.
